Results reported in ChEMBL document CHEMBL3351249, “Potent cholesteryl ester transfer protein inhibitors of reduced lipophilicity: 1,1'-spiro-substituted hexahydrofuroquinoline derivatives” (J Med Chem, 2014).
pIC50: −log10 of the molar value.

Key:
[1] = target: T1, Cholesteryl ester transfer protein (Homo sapiens, UniProt P11597); assay: Inhibition of human recombinant CETP by fluorescence transfer assay
T1 sequence (P11597 whole entry): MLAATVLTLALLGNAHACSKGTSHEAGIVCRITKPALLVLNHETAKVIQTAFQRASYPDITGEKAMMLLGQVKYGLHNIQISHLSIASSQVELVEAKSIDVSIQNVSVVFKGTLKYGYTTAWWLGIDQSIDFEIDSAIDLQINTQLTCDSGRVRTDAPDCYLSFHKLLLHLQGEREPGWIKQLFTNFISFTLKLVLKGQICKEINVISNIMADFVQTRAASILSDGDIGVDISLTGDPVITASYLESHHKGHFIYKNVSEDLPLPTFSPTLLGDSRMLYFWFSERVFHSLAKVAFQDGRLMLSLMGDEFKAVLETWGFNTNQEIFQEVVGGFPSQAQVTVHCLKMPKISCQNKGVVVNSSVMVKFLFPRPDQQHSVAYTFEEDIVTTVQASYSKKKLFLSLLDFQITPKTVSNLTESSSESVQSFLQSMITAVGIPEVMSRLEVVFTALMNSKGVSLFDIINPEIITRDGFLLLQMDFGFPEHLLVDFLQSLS

[2] = Terminal elimination half life in healthy human administered as single oral dose; type: ADME, organism-based; details: in vivo, read-out: beta t1/2 (converted)

Row | Structure (SMILES) | pIC50 [1] | half-life [2] [days]
1 | CC(C)c1nc2c(c3c1[C@@H](c1ccc(C(F)(F)F)nc1)OC31CCCC1)[C@@H](O)CC(C)(C)C2 | 6.87 | –
2 | CC(C)c1nc2c(c3c1[C@@H](c1ccc(F)cc1)OC31CCCC1)[C@@H](O)CC(C)(C)C2 | 6.10 | –
3 | CCOC(=O)N1c2ccc(C(F)(F)F)cc2[C@@H](N(Cc2cc(C(F)(F)F)cc(C(F)(F)F)c2)C(=O)OC)C[C@H]1CC [TORCETRAPIB] | – | 9.21

The remaining lines, values ahead:

Row | pIC50 [1] | half-life [2] [days] | Structure (SMILES)
4 | 7.29 | – | CC(C)c1nc2c(c3c1[C@@H](c1ccc(C(F)(F)F)cc1)OC31CCCC1)[C@@H](O)CC(C)(C)C2
5 | 7.02 | – | CC(C)c1nc2c(c3c1[C@@H](c1ccc(C(F)(F)F)cn1)OC31CCCC1)[C@@H](O)CC(C)(C)C2
6 | 7.54 | – | CC(C)c1nc2c(c3c1[C@@H](c1ccc(C(C)(C)C)cc1)OC31CCCC1)[C@@H](O)CC(C)(C)C2
